Laboratory results taken from patent US9546164B2 (GENENTECH, INC., priority 2013, dated 2017).
Where two headings read alike, the source gives them in different places.

Target: hNav1.7 (Homo sapiens (Human), UniProt Q15858)
Test: Tritiated sulfonamide competitive binding to membranes from cells expressing hNav1.7 and the β1 subunit;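 further: Filter-bound radioactivity counted by liquid scintillation, nonspecific binding defined with excess unlabelled ligand, IC50 fitted to percent inhibition of specific binding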
[1] = read-out: Ligand Binding Assay, 100 pM [3H]compound, membranes with hNav1.7 and β1 subunit, 18 h, room temperature

Chain of hNav1.7 (Q15858 other isoform, or with tags, fused parts or gaps): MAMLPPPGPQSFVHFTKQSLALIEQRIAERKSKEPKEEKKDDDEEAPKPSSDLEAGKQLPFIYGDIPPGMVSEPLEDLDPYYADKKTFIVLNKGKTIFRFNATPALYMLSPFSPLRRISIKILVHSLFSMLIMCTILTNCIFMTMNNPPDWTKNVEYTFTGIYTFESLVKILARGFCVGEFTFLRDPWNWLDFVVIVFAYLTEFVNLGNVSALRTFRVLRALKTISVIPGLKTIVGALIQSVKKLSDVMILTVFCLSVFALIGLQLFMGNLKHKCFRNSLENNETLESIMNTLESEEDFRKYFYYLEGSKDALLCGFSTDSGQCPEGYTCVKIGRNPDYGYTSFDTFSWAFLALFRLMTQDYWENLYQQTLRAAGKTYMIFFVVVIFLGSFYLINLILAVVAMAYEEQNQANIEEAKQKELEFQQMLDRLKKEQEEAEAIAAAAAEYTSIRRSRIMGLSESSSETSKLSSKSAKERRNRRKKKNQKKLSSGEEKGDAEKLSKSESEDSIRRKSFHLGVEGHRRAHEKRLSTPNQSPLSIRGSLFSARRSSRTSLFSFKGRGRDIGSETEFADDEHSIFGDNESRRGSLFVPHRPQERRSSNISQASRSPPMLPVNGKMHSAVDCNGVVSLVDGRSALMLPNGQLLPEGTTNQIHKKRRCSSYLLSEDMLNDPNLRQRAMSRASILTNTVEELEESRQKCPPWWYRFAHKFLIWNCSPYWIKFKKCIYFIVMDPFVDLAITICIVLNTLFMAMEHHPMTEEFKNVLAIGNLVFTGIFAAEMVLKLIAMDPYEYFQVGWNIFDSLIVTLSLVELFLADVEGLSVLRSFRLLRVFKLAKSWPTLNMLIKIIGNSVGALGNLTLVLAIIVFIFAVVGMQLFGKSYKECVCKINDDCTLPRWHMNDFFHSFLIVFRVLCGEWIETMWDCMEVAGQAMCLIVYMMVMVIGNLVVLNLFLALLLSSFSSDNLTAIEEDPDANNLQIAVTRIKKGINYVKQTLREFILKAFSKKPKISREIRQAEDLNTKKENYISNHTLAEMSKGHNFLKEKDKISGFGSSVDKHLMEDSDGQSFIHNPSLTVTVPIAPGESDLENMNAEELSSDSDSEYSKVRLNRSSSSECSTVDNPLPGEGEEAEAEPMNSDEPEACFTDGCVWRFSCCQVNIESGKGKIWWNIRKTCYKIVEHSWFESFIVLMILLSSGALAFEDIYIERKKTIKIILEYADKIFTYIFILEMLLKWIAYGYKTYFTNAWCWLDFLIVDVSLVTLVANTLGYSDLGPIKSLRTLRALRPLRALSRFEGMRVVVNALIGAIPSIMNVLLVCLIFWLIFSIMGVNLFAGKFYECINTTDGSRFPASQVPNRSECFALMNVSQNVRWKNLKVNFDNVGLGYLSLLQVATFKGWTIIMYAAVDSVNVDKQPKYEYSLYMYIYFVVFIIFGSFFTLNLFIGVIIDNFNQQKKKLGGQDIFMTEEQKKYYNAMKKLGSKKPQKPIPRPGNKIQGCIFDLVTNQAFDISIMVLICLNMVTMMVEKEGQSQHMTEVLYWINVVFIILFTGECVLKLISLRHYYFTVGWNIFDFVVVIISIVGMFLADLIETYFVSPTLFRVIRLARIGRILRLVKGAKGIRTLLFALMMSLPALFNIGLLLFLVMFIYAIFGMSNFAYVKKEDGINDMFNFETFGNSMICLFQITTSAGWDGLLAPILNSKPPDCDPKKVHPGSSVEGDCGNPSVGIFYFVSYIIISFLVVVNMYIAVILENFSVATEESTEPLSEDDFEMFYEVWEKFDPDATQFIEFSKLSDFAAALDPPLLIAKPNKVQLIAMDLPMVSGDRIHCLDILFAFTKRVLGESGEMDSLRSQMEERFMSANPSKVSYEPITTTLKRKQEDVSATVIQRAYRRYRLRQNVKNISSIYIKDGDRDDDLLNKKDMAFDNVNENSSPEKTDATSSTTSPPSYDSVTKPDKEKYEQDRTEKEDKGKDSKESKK
Chain of hNav1.7 (Q07699 19-218 partner): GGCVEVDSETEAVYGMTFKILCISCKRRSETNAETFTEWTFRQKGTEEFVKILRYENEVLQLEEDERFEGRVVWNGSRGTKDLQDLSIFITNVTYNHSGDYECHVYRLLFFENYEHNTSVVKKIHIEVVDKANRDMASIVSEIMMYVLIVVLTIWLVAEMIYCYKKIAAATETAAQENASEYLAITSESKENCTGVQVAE

SMILES | IC50 [1] | IC50
Cc1ccc(CN2CCC(COc3cc(F)c(C(=O)NS(C)(=O)=O)cc3C3CC3)CC2)cc1 [Example 93, 5-Cyclopropyl-2-fluoro-4-((1-(4-methylbenzyl)piperidin-4-yl)methoxy)-N-(methylsulfonyl)benzamide] | 173 nM | –
COc1ccc(CN2CCC(COc3cc(F)c(C(=O)NS(C)(=O)=O)cc3C3CC3)CC2)cc1F [Example 94, 5-Cyclopropyl-2-fluoro-4-((1-(3-fluoro-4-methoxybenzyl)piperidin-4-yl)methoxy)-N-(methylsulfonyl)benzamide] | 150 nM | –
CS(=O)(=O)NC(=O)c1cc(C2CC2)c(OCC2CN([C@@H](c3ccccc3)c3ccc(S(C)(=O)=O)cc3)C2)cc1F [Example 95, (S)-5-Cyclopropyl-2-fluoro-N-(methylsulfonyl)-4-((1-((4-(methylsulfonyl)phenyl)(phenyl)methyl)azetidin-3-yl)methoxy)benzamide] | 1060 nM | –
CS(=O)(=O)NC(=O)c1cc(C2CC2)c(OCC2CN([C@H](c3ccccc3)c3ccc(S(C)(=O)=O)cc3)C2)cc1F [Example 96, (R)-5-Cyclopropyl-2-fluoro-N-(methylsulfonyl)-4-((1-((4-(methylsulfonyl)phenyl)(phenyl)methyl)azetidin-3-yl)methoxy)benzamide] | 429 nM | –
CC(c1cc(Cl)cc(Cl)c1)N1CCC(COc2cc(F)c(C(=O)NS(C)(=O)=O)cc2C2CC2)CC1 (centres unmarked) [Example 97, 5-Cyclopropyl-4-((1-(1-(3,5-dichlorophenyl)ethyl)piperidin-4-yl)methoxy)-2-fluoro-N-(methylsulfonyl)benzamide] | 2.69 nM | –
CC(c1cc(Cl)cc(Cl)c1)N1CC(COc2cc(F)c(C(=O)NS(C)(=O)=O)cc2C2CC2)C1 (centres unmarked) [Example 98, 5-Cyclopropyl-4-((1-(1-(3,5-dichlorophenyl)ethyl)azetidin-3-yl)methoxy)-2-fluoro-N-(methylsulfonyl)benzamide] | 7.51 nM | –
C[C@H](c1cc(Cl)cc(Cl)c1)N1CCC(COc2cc(F)c(C(=O)NS(C)(=O)=O)cc2C2CC2)CC1 [Example 99, (R)-5-Cyclopropyl-4-((1-(1-(3,5-dichlorophenyl)ethyl)piperidin-4-yl)methoxy)-2-fluoro-N-(methylsulfonyl)-benzamide] | 3.89 nM | –
CCS(=O)(=O)NC(=O)c1cc(C2CC2)c(OCC2CCN(C(C)c3cc(Cl)cc(Cl)c3)CC2)cc1F (centres unmarked) [Example 101, 5-Cyclopropyl-4-((1-(1-(3,5-dichlorophenyl)ethyl)piperidin-4-yl)methoxy)-N-(ethylsulfonyl)-2-fluorobenzamide] | 3.76 nM | –
CC(c1cc(Cl)cc(Cl)c1)N1CCC(COc2cc(F)c(C(=O)NS(=O)(=O)C3CC3)cc2C2CC2)CC1 (centres unmarked) [Example 102, 5-Cyclopropyl-N-(cyclopropylsulfonyl)-4-((1-(1-(3,5-dichlorophenyl)-ethyl)piperidin-4-yl)methoxy)-2-fluorobenzamide] | 2.54 nM | –
CC(c1cc(Cl)cc(Cl)c1)N1CCC(COc2cc(F)c(C(=O)NS(=O)(=O)N3CCC3)cc2C2CC2)CC1 (centres unmarked) [Example 103, N-(Azetidin-1-ylsulfonyl)-5-cyclopropyl-4-((1-(1-(3,5-dichlorophenyl)-ethyl)piperidin-4-yl)methoxy)-2-fluorobenzamide] | 5.24 nM | –
CS(=O)(=O)NC(=O)c1cc(C2CC2)c(OCC2CCN(Cc3ccc(Cl)cc3)CC2)cc1F [Example 104, 4-((1-(4-Chlorobenzyl)piperidin-4-yl)methoxy)-5-cyclopropyl-2-fluoro-N-(methylsulfonyl)benzamide] | 45.1 nM | –
CS(=O)(=O)NC(=O)c1cc(C2CC2)c(OCC2CCN(Cc3ccc(F)cc3Cl)CC2)cc1F [Example 105, 4-((1-(2-Chloro-4-fluorobenzyl)piperidin-4-yl)methoxy)-5-cyclopropyl-2-fluoro-N-(methylsulfonyl)benzamide] | 16.3 nM | –
CS(=O)(=O)NC(=O)c1cc(C2CC2)c(OCC2CN([C@@H](c3ccccc3)c3cccc(C#N)c3)C2)cc1F [Example 108, (S)-4-((1-((3-Cyanophenyl)(phenyl)methyl)azetidin-3-yl)methoxy)-5-cyclopropyl-2-fluoro-N-(methylsulfonyl)benzamide] | 94 nM | –
CS(=O)(=O)NC(=O)c1cc(C2CC2)c(OCC2CN([C@H](c3ccccc3)c3cccc(C#N)c3)C2)cc1F [Example 109, (R)-4-((1-((3-Cyanophenyl)(phenyl)methyl)azetidin-3-yl)methoxy)-5-cyclopropyl-2-fluoro-N-(methylsulfonyl)benzamide] | 53.6 nM | –
CS(=O)(=O)NC(=O)c1cc(C2CC2)c(OCC2CN([C@@H](c3ccccc3)c3ccc(C#N)cc3)C2)cc1F [Example 110, (S)-4-((1-((4-Cyanophenyl)(phenyl)methyl)azetidin-3-yl)methoxy)-5-cyclopropyl-2-fluoro-N-(methylsulfonyl)benzamide] | – | 41.1 nM
CS(=O)(=O)NC(=O)c1cc(C2CC2)c(OCC2CN([C@H](c3ccccc3)c3ccc(C#N)cc3)C2)cc1F [Example 111, (R)-4-((1-((4-Cyanophenyl)(phenyl)methyl)azetidin-3-yl)methoxy)-5-cyclopropyl-2-fluoro-N-(methylsulfonyl)benzamide] | – | 20.4 nM
CS(=O)(=O)NC(=O)c1cc(C2CC2)c(OCC2CN([C@@H](c3ccccc3)c3ccc(OC(F)(F)F)cc3)C2)cc1F [Example 112, (S)-5-Cyclopropyl-2-fluoro-N-(methylsulfonyl)-4-((1-(phenyl(4-(trifluoromethoxy)phenyl)methyl)azetidin-3-yl)methoxy)benzamide] | 3.35 nM | –
CS(=O)(=O)NC(=O)c1cc(C2CC2)c(OCC2CN([C@H](c3ccccc3)c3ccc(OC(F)(F)F)cc3)C2)cc1F [Example 113, (R)-5-Cyclopropyl-2-fluoro-N-(methylsulfonyl)-4-((1-(phenyl(4-(trifluoromethoxy)phenyl)methyl)azetidin-3-yl)methoxy)benzamide] | 11.1 nM | –

The remaining lines, values ahead:

IC50 [1] | IC50 | SMILES
7.27 nM | – | CC(C)Oc1ncc([C@H](c2ccccc2)N2CC(COc3cc(F)c(C(=O)NS(C)(=O)=O)cc3C3CC3)C2)cc1Cl [Example 114, (S)-4-((1-((5-Chloro-6-isopropoxypyridin-3-yl)(phenyl)methyl)azetidin-3-yl)methoxy)-5-cyclopropyl-2-fluoro-N-(methylsulfonyl)benzamide]
4.2 nM | – | CC(C)Oc1ncc([C@@H](c2ccccc2)N2CC(COc3cc(F)c(C(=O)NS(C)(=O)=O)cc3C3CC3)C2)cc1Cl [Example 115, (R)-4-((1-((5-Chloro-6-isopropoxypyridin-3-yl)(phenyl)methyl)azetidin-3-yl)methoxy)-5-cyclopropyl-2-fluoro-N-(methylsulfonyl)benzamide]
77.5 nM | – | CS(=O)(=O)NC(=O)c1cc(C2CC2)c(OCC2CCN(CC(F)(F)F)CC2)cc1F [Example 116, 5-Cyclopropyl-2-fluoro-N-(methylsulfonyl)-4-((1-(2,2,2-trifluoroethyl)-piperidin-4-yl)methoxy)benzamide]
411 nM | – | CS(=O)(=O)NC(=O)c1cc(C2CC2)c(OCC2CCN(CCC(F)(F)F)CC2)cc1F [Example 117, 5-Cyclopropyl-2-fluoro-N-(methylsulfonyl)-4-((1-(3,3,3-trifluoropropyl)piperidin-4-yl)methoxy)benzamide]
417 nM | – | CS(=O)(=O)NC(=O)c1cc(C2CC2)c(OCC2CN([C@@H](c3ccccc3)c3ccccn3)C2)cc1F [Example 118, (S)-5-Cyclopropyl-2-fluoro-N-(methylsulfonyl)-4-((1-(phenyl(pyridin-2-yl)methyl)azetidin-3-yl)methoxy)benzamide]
20.6 nM | – | C[C@@H](c1cc(Cl)cc(Cl)c1)N1CC(COc2cc(F)c(C(=O)NS(C)(=O)=O)cc2C2CC2)C1 [Example 120, (S)-5-Cyclopropyl-4-((1-(1-(3,5-dichlorophenyl)ethyl)azetidin-3-yl)methoxy)-2-fluoro-N-(methylsulfonyl)benzamide]
30.1 nM | – | C[C@H](c1cc(Cl)cc(Cl)c1)N1CC(COc2cc(F)c(C(=O)NS(C)(=O)=O)cc2C2CC2)C1 [Example 121, (R)-5-Cyclopropyl-4-((1-(1-(3,5-dichlorophenyl)ethyl)azetidin-3-yl)methoxy)-2-fluoro-N-(methylsulfonyl)benzamide]
2.4 nM | – | CC1(COc2cc(F)c(C(=O)NS(C)(=O)=O)cc2C2CC2)CCN(Cc2cc(Cl)ccc2C(F)(F)F)CC1 [Example 122]
2.9 nM | – | CC1(COc2cc(F)c(C(=O)NS(C)(=O)=O)cc2C2CC2)CCN(Cc2cc(Cl)cc(Cl)c2)CC1 [Example 123, 5-cyclopropyl-4-((1-(3,5-dichlorobenzyl)-4-methylpiperidin-4-yl)methoxy)-2-fluoro-N-(methylsulfonyl)benzamide]
71.3 nM | – | CS(=O)(=O)NC(=O)c1cc(C2CC2)c(OCC2CN([C@@H](c3ccccc3)c3ccccc3F)C2)cc1F [Example 124, (S)-5-Cyclopropyl-2-fluoro-4-((1-((2-fluorophenyl)(phenyl)methyl)azetidin-3-yl)methoxy)-N-(methylsulfonyl)benzamide]
25 nM | – | CS(=O)(=O)NC(=O)c1cc(C2CC2)c(OCC2CN([C@H](c3ccccc3)c3ccccc3F)C2)cc1F [Example 125, (R)-5-Cyclopropyl-2-fluoro-4-((1-((2-fluorophenyl)(phenyl)methyl)azetidin-3-yl)methoxy)-N-(methylsulfonyl)benzamide]
282 nM | – | CS(=O)(=O)NC(=O)c1cc(C2CC2)c(OCC2CCN(Cc3ccc(C(F)(F)F)cc3)CC2)cc1F [Example 126]
578 nM | – | CS(=O)(=O)NC(=O)c1cc(C2CC2)c(OCC2CCN(Cc3ccccc3F)CC2)cc1F [Example 127, 5-Cyclopropyl-2-fluoro-4-((1-(2-fluorobenzyl)piperidin-4-yl)methoxy)-N-(methylsulfonyl)benzamide]
5.6 nM | – | CC(C)Oc1ncc(CN2CCC(COc3cc(F)c(C(=O)NS(C)(=O)=O)cc3C3CC3)CC2)cc1Cl [Example 128, 4-((1-((5-Chloro-6-isopropoxypyridin-3-yl)methyl)piperidin-4-yl)methoxy)-5-cyclopropyl-2-fluoro-N-(methylsulfonyl)benzamide]
